Experimental data as given in patent publication US20120328526A1, “Modulation of Nad+ Activity in Neuropathophysiological Conditions and Uses Thereof” (University of Maryland, Baltimore, priority 2011, published 2012).
Entries after “also recorded” stand apart in the source; their conditions may differ.

Assays:
[1] = Core temperature and blood pressure after nicotinamide mononucleotide administration in post-ischemic animals; assay type: in vivo, mouse
From the text: For quantification of uninjured cells within the CA1 sector of the hippocampus an unbiased stereological technique was used (27). […] This is in accord with the degree of hippocampal injury reported in other models of mouse forebrain ischemia. There were no seizure incidents during the first hours of recovery however there was about 10% mortality in the 5 days recovery group. […] To exclude the possibility that the protection was due to hypothermia, the treated animals' core temperature was monitored for 1 h after the nicotinamide mononucleotide administration. The body temperature was stable at 37.5° C. Similarly there was no effect of nicotinamide mononucleotide administration on the animals' blood pressure that was maintained between 80 and 100 mmHg after the compound injection.

[2] = system: neurons in the CA1 sector of the hippocampus; assay: Forebrain ischemia model, histological outcome in the CA1 sector of the hippocampus; assay type: in vivo, mouse
Description: FIGS. 1A-1B show effects of nicotinamide mononucleotide administration. FIG. 1A: Fluoro-Jade B staining of the hippocampal formation of mouse brain subjected to 10 min forebrain ischemia and 5 days of recovery. The middle panels represent enlarged views of the CA1 sector, the CA2-3 border, and DG. Note the high number of degenerating, Fluoro-Jade B positive cells in the CA1 pyramidal cell layer. There are only a few cells stained in the CA3 region, and some cells are stained in the DG. […] Open bars represent average values.
In all groups male, 3 months old animals were used.
C57BL/6 male mice, weighing 20-25 g were used. Mice were fasted overnight with free access to water ad libitum. Animals were anesthetized with 3.5% isoflurane in 70% N2O and 30% O2 and the trachea were intubated with a 20-guage intravenous catheter. Anesthesia was maintained using 1.5% isoflurane in N2O:O2 (70:30) and the lungs were mechanically ventilated at a rate of 120 breaths per min and the tidal volume was adjusted to give normal physiological values of blood gases (34-38 mm Hg pCO2 and […] of pO2). The common carotid arteries was isolated via a neck incision and encircled with loose ligatures for later clamping. Rectal temperature was routinely monitored before, during and after ischemia. A subcutaneous needle thermistor was placed adjacent to the skull. The body and head temperature was maintained at 37.0±0.5° C. by a homeothermic-heating pad and heating lamp.
Two minutes before the common carotid arteries are clamped, the isoflurane concentration will be increased to 5%. […]
Every sixth […] section located between 1.7 and 2.6 mm posterior to bregma (0 mm, 180 mm, 360 mm, 540 mm, 720 mm, 900 mm; 6 sections), which comprises the dorsal hippocampus, was stained with IBA1 antiserum and cresyl violet and used for estimating the total microglial number with distinct morphology and neuronal numbers of normal and dying neurons in the different hippocampal regions. […] Parallel sections were immuno-stained with GFAP antibody and the number of distinct astrocytes were counted in the same hippocampal area. GFAP-immunoreactive cells were classified into three categories: normal, moderate, and intensely activated astrocytes, based on morphological characteristics as assessed by visual inspection (23).
Quantitative analysis is performed on a computer-assisted image analysis system consisting of a Nikon Eclipse 800 photomicroscope equipped with a computer-controlled motorized stage, and a computer running Stereolnvestigator program, a custom-designed morphology and stereology software (27). Cell numbers were quantified according to the optical fractionator method. […]
For quantification of uninjured cells within the CA1 sector of the hippocampus an unbiased stereological technique was used (27). […]

CD38-deficient cells = assay: Oxygen-glucose deprivation (OGD) in CD38-deficient cell cultures; assay type: cell-based, mouse
From the text: At later recovery periods, tissue NAD(H) decrease since the NAD^+ translocates from mitochondria to the cytosol and is hydrolyzed by the activated NAD^+ glycohydrolases CD38 and PARP1. CD38-dependent overactivation of microglia under diabetic conditions leads to aggravation of ischemic brain damage, astrocytes and neurons prepared from CD38 knockout animals with microglia (9) from wild type or CD38-null animals are co-cultured. The co-cultures are then subjected to OGD and the cell death assessed at 24 h of recovery.
Exposure of cortical astrocytes to OGD plus ISS for 4 h results in significant (>50%) cell death after 24 h of reoxygenation (24) was determined. When cortical neurons are subjected to the same insult for 1 h, a similar level of cell death (40-50%) was observed. Cells cultured under hyperglycemic conditions (30 mM glucose) are more sensitive to the oxygen-glucose deprivation (OGD) insult. The CD38-deficient cells will have elevated basal levels of NAD(H) since the brain NAD(H) levels in CD38-null mice are several-fold higher when compared to wild type mice (6). The protective effect of CD38 knockout in specific cell types will also depend on the oxygen-glucose deprivation-induced loss of mitochondrial NAD(H) that can promote total cellular NAD(H) depletion. […]

SMILES: NC(=O)c1ccc[n+]([C@@H]2O[C@H](COP(=O)([O-])O)[C@@H](O)[C@H]2O)c1 [nicotinamide mononucleotide]
- effect on animals' blood pressure ([1]; after the compound injection (500 mg/kg)): no effect
- body (core) temperature after administration ([1]; monitored for 1 h after NMN administration (500 mg/kg)): 37.5 °C
- ischemic cell death / brain damage in the CA1 sector of the hippocampus ([2]; 10 min forebrain ischemia, NMN 500 mg/kg at 1 hour of reperfusion, 5 days of recovery): almost completely ameliorated; also recorded: markedly ameliorates ischemic brain damage; also recorded: almost completely eliminate the ischemic brain damage; also recorded: dramatic amelioration of cell death; also recorded: significant protection
- ischemic cell death / brain damage in the CA1 sector of the hippocampus ([2]; 10 min forebrain ischemia, NMN 500 mg/kg at 1 hour of reperfusion, 5 days of recovery, listed as NMN): Dramatic reduction of ischemia-induced brain damage
- animals that did not show any injured neurons ([2]; 10 min forebrain ischemia, NMN 500 mg/kg at 1 hour of reperfusion, 5 days of recovery, n=6): Five of 6
- percentage of uninjured neurons in the CA1 sector vs vehicle-treated wild type mice ([2]; 10 min global cerebral ischemia, NMN 1000 mg/kg IP at start of reperfusion, 6 days of recovery): significantly greater
- protective effect in CD38-deficient cells compared to PARP-1 inhibitors 3-AB or PJ34 (CD38-deficient cells): less efficient protective effect
